Data published in ChEMBL document CHEMBL4715766, “Systemic structure-activity relationship study of phenyl polyyne diols as potential chemopreventive agents” (Bioorg Med Chem Lett, 2016).

How the values were obtained:
[1] = Chemopreventive index, ratio of IC50 for mouse Hepa-1c1c7 cells to drug level required to double NADPH:quinone reductase activity in mouse Hepa-1c1c7 cells
[2] = Cytotoxicity against mouse Hepa1c1c7 cells; assay type: cell-based; details: Hepa-1c1c7
[3] = target: NAD(P)H dehydrogenase [quinone] 1 (Mus musculus) (UniProt Q64669); details: Hepa1c1c7, filed as activator
Chain of NAD(P)H dehydrogenase [quinone] 1 (Mus musculus) (Q64669 whole entry): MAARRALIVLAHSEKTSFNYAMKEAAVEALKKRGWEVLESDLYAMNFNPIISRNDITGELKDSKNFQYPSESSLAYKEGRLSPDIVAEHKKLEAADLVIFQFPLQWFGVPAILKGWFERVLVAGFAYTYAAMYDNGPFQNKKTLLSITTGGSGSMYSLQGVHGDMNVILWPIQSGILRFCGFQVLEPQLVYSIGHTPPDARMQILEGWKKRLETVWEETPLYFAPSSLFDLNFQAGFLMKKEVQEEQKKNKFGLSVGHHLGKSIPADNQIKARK
Description: Induction of quinone reductase activity in mouse Hepa1c1c7 cells

SMILES | Ratio [1] | IC50 [2] | CD [3]
CCCCCC(O)C#CC#CC(O)c1ccc2c(c1)OCO2 (centres undefined) | >28.2 | > 50 µM | 
C[S+]([O-])CCCCN=C=S (centres undefined) [SULFORAPHANE] | 29.5 |  | 0.5 µM
